Drawing on PubChem BioAssay (NCI), this text covers GI50 and TGI for 7 molecules.

Test systems include CCRF-CEM leukemia; COLO 205 colon; HCT-116 colon; HOP-62 NSCLC; LOX IMVI melanoma; MDA-MB-231 breast; RPMI-8226 leukemia; SF-268 CNS; SNB-75 CNS; UACC-62 melanoma.
Assay in all cases: NCI-60 cell line screen, 48 h

Several values for one entry are separate records, joined by “and”; a condition that tells them apart may be missing. Identical values can stand only once.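 Exposure lasted 48 hours, with cells grown in 96-well plates and compounds tested at five concentrations. GI50 = concentration required for 50% inhibition of growth. The concentration for full growth arrest is given as TGI.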

For the molecule `CCCCCCCCCCCCCCCCOC(=O)c1c(C)[nH]c(/C=C2\N=C(c3ccc[nH]3)C=C2OC)c1C`, the GI50 with CCRF-CEM leukemia is 32.9 µM; with COLO 205 colon it was 3.81 µM; in the experiment with HCT-116 colon, 0.043 µM; in the experiment on HOP-62 NSCLC it was 2.89 µM; in the experiment with LOX IMVI melanoma, 0.0346 µM; in the experiment on MDA-MB-231 breast it was 0.789 µM. In addition, the GI50 in the experiment with RPMI-8226 leukemia is 0.0958 µM; in the experiment on SF-268 CNS, 1.99 µM; in the experiment with SNB-75 CNS it was 2.47 µM; in the experiment on UACC-62 melanoma it was 0.235 µM. Moreover, the TGI was over 100 µM with CCRF-CEM leukemia; over 100 µM with COLO 205 colon; 7.33 µM in the experiment on HCT-116 colon; 12.8 µM in the experiment on HOP-62 NSCLC; 0.144 µM with LOX IMVI melanoma; 10.1 µM in the experiment with MDA-MB-231 breast. Besides, the TGI in the experiment on RPMI-8226 leukemia was over 100 µM; with SF-268 CNS it was 19.6 µM; in the experiment on SNB-75 CNS, 7.17 µM; in the experiment on UACC-62 melanoma it was 0.62 µM.
With `C/C=C(\CCC1NCCc2c1[nH]c1ccccc21)[Si](C)(C)C` (configuration not stated), the GI50 with CCRF-CEM leukemia is 7.18 µM and 2.17 µM; with HCT-116 colon, 5.6 µM and 1.71 µM; in the experiment with RPMI-8226 leukemia it was 19.8 µM and 2.36 µM. Also, the TGI in the experiment with CCRF-CEM leukemia is 17.2 µM and 8.44 µM; in the experiment with COLO 205 colon, 27.5 µM and 3.26 µM; in the experiment with HCT-116 colon, 10.3 µM and 3.13 µM; in the experiment with HOP-62 NSCLC, 28.1 µM and 24.5 µM; in the experiment with LOX IMVI melanoma, 38.5 µM and 4.84 µM; with MDA-MB-231 breast, 4.56 µM. Also, the TGI with SF-268 CNS was 26.2 µM and 23.6 µM; in the experiment with SNB-75 CNS, 14.8 µM and 16.7 µM; in the experiment with UACC-62 melanoma, 11.8 µM and 12.3 µM.
Take `O=C1/C(=C/c2ccc([N+](=O)[O-])o2)Oc2ccccc21`: the GI50 in the experiment on CCRF-CEM leukemia is 0.338 µM; in the experiment on COLO 205 colon, 1.35 µM; with HCT-116 colon, 0.332 µM; in the experiment with HOP-62 NSCLC, 2.22 µM; in the experiment with LOX IMVI melanoma, 1.42 µM; with MDA-MB-231 breast it was 1.54 µM. For the same molecule, the GI50 is 1.02 µM in the experiment on RPMI-8226 leukemia, 2.19 µM with SF-268 CNS, 1.8 µM with SNB-75 CNS and 1.47 µM in the experiment on UACC-62 melanoma. The TGI was found to be 1.38 µM in the experiment on CCRF-CEM leukemia; 2.91 µM in the experiment on COLO 205 colon; 1.36 µM in the experiment on HCT-116 colon; 6.42 µM with HOP-62 NSCLC; 2.93 µM in the experiment on LOX IMVI melanoma; 3.58 µM with MDA-MB-231 breast. Besides, the TGI stood at 3.58 µM in the experiment with RPMI-8226 leukemia, 5.86 µM in the experiment with SF-268 CNS, 5.77 µM with SNB-75 CNS and 2.93 µM with UACC-62 melanoma.
Consider `O=C1/C(=C/c2ccc(Cl)cc2)CN(Cc2cn(CCNc3ccnc4cc(Cl)ccc34)nn2)C/C1=C\c1ccc(Cl)cc1`, for which the GI50 in the experiment with CCRF-CEM leukemia was 0.309 µM; in the experiment on COLO 205 colon it was 0.354 µM; in the experiment with HCT-116 colon, 0.203 µM; in the experiment on HOP-62 NSCLC it was 0.272 µM; in the experiment on LOX IMVI melanoma, 0.189 µM; in the experiment on MDA-MB-231 breast it was 0.293 µM. Moreover, the GI50 in the experiment with RPMI-8226 leukemia is 0.272 µM; in the experiment on SF-268 CNS it was 0.27 µM; with SNB-75 CNS, 1.22 µM; with UACC-62 melanoma, 0.528 µM. For the same molecule, the TGI in the experiment with CCRF-CEM leukemia was over 100 µM; with COLO 205 colon it was 1.07 µM; with HCT-116 colon, 0.436 µM; with HOP-62 NSCLC it was 0.729 µM; in the experiment with LOX IMVI melanoma, 0.35 µM; with MDA-MB-231 breast, 0.966 µM. Moreover, the TGI in the experiment with RPMI-8226 leukemia turned out to be 1.05 µM; in the experiment on SF-268 CNS, 0.786 µM; in the experiment with SNB-75 CNS it was 2.63 µM; with UACC-62 melanoma it was 1.92 µM.
In the case of `COc1ccc(N(C)c2nc(Cl)nc3ccn(C)c23)cc1`, the GI50 in the experiment with CCRF-CEM leukemia, in the experiment with COLO 205 colon, in the experiment with HCT-116 colon, with HOP-62 NSCLC, in the experiment on LOX IMVI melanoma and with MDA-MB-231 breast was under 0.01 µM throughout. Also, the GI50 in the experiment with RPMI-8226 leukemia, with SF-268 CNS, in the experiment with SNB-75 CNS and with UACC-62 melanoma was under 0.01 µM throughout. The TGI was over 100 µM in the experiment with CCRF-CEM leukemia; under 0.01 µM in the experiment with COLO 205 colon; over 100 µM in the experiment on HCT-116 colon; over 100 µM in the experiment on HOP-62 NSCLC; over 100 µM in the experiment with LOX IMVI melanoma; over 100 µM in the experiment with MDA-MB-231 breast. Also, the TGI in the experiment on RPMI-8226 leukemia, in the experiment on SF-268 CNS, with SNB-75 CNS and in the experiment with UACC-62 melanoma was over 100 µM throughout.
Turning to `COc1cc(C(=O)N2CCN(c3ccccc3OC)CC2)c(N)cc1OCc1ccccc1`, the GI50 in the experiment on CCRF-CEM leukemia was 34.7 µM; with COLO 205 colon, 59.4 µM; with HCT-116 colon it was 20.7 µM; with HOP-62 NSCLC it was 34.4 µM; in the experiment on LOX IMVI melanoma, 27.2 µM; in the experiment on MDA-MB-231 breast, 19.2 µM. The GI50 in the experiment on RPMI-8226 leukemia is 21.1 µM; in the experiment on SF-268 CNS it was 43.8 µM; in the experiment on SNB-75 CNS, 42.6 µM; with UACC-62 melanoma, 26 µM. Besides, the TGI with CCRF-CEM leukemia is 98.3 µM; in the experiment with COLO 205 colon, over 100 µM; in the experiment on HCT-116 colon it was 42.8 µM; with HOP-62 NSCLC, over 100 µM; with LOX IMVI melanoma, 71.3 µM; in the experiment on MDA-MB-231 breast it was 42.6 µM. Besides, the TGI is 49.2 µM in the experiment on RPMI-8226 leukemia, over 100 µM with SF-268 CNS, over 100 µM in the experiment on SNB-75 CNS and 77.1 µM with UACC-62 melanoma.
As to `CC1(C)N=C(N)N=C(N)N1c1ccc(OCC(=O)N2CCOCC2)c(Cl)c1`, the GI50 in the experiment on CCRF-CEM leukemia was 3.55 µM; in the experiment with COLO 205 colon, 8.8 µM; in the experiment on HCT-116 colon it was 0.667 µM; in the experiment on HOP-62 NSCLC, 12.2 µM; with LOX IMVI melanoma it was 0.545 µM; in the experiment on MDA-MB-231 breast, over 100 µM. In addition, the GI50 with RPMI-8226 leukemia was 9.04 µM; in the experiment on SF-268 CNS, 0.759 µM; in the experiment on SNB-75 CNS, 10.3 µM; in the experiment on UACC-62 melanoma, 4.74 µM. In addition, the TGI in the experiment with CCRF-CEM leukemia, in the experiment with COLO 205 colon, in the experiment with HCT-116 colon, in the experiment on HOP-62 NSCLC, in the experiment on LOX IMVI melanoma and in the experiment on MDA-MB-231 breast was over 100 µM in each case. For the same molecule, the TGI in the experiment on RPMI-8226 leukemia, with SF-268 CNS, in the experiment with SNB-75 CNS and with UACC-62 melanoma was over 100 µM throughout.
